pIC50: −log10 of the molar value. In brackets after ≈: the same amount, converted by molar mass. Where two headings read alike, the source gives them in different places.
Columns and labels:
[1] = hydrolytic stability in aqueous buffers, TLC quantification of N-trifluoroacetyladriamycin; type: physicochemical; settings: for degraded at 24 h: aqueous buffer, dark, read-out: Percent hydrolyzed
From the text: The results were as follows:

murine P388 leukemia = assay: in vivo antitumor activity against murine P388 leukemia, ip qd 1-4; parameters: species or system mouse (BDF1 male mice); settings: 10% Emulphor EL-620, 10% ethanol, 80% saline
Description: (§1) The toxicity and therapeutic effectiveness of the new compounds and active agents of the present invention are shown by in vitro assays and by in vivo evaluations in mice. The in vitro assays measure the growth inhibiting activity of the materials against the CCRF-CEM cell line in culture. The cell line was derived from the peripheral blood of a child with lymphoblastic leukemia as described by Foley et al., Cancer, Volume 18, page 522 et seq. (1965), and the assays were carried out by the procedure of Foley and Lazarus, Biochem. Pharmacol., Volume 16, pages 659 et seq. (1967), the results being reported in terms of the dose in micromoles per liter required to inhibit growth of the cultures by 50% relative to control cultures to which no drug had been added (ID50). The in vivo evaluations were made by preparing a 0.2 to 0.7% by weight solution of the active agent in a formulation consisting of 10% by volume of each polyethoxylated castor oil and ethanol in saline and injecting the dosage intraperitoneally. The evaluations were made of the antitumor activity against the murine P388 and murine L1210 leukemias in BDF1 male mice according to standard National Cancer Institute protocols as set forth by Geran et al., Cancer Chemotherap. Rep., Part 3, Volume 3, pages 1 et seq. (1972) , except that a qd 1-4 schedule was used in place of qd 1-9 in order to conserve materials.
(§2) Optimal dosage was determined by testing doses which were at several multiples of 10 milligrams/kilogram of body weight. Some effectiveness can be observed at dosages ranging from 30 to 70 milligrams/kilogram of body weight, depending upon the particular compound employed.
The following table summarizes the in vivo antitumor activity of the same compounds as those in Table I, evaluated against murine P388 leukemia as described above. All compounds were administered intraperitoneally, adriamycin in clinical formulation (1 part adriamycin plus 5 parts lactose, in 0.9% saline), the other compounds in 10% Emulphor EL-620, 10% ethanol, 80% isotonic saline.

mice = assay: toxicity to mice; type: in vivo, mouse
Description: as §1

CCRF-CEM cells = assay: growth inhibition of CCRF-CEM cell line in culture; type: cell-based; settings: Homo sapiens; CCRF-CEM cells, in vitro; read-out: ID50 (dose required to inhibit growth of the cultures by 50% relative to control)
From the text: The in vitro assays measure the growth inhibiting activity of the materials against the CCRF-CEM cell line in culture. […] The in vivo evaluations were made by preparing a 0.2 to 0.7% by weight solution of the active agent in a formulation consisting of 10% by volume of each polyethoxylated castor oil and ethanol in saline and injecting the dosage intraperitoneally. The evaluations were made of the antitumor activity against the murine P388 and murine L1210 leukemias in BDF1 male mice according to standard National Cancer Institute protocols as set forth by Geran et al., Cancer Chemotherap. Rep., Part 3, Volume 3, pages 1 et seq.

murine L1210 leukemia = assay: in vivo antitumor activity against L1210 leukemia, ip days 1-4; parameters: species or system mouse (BDF1 male mice)
Description: as §1, §2
All compounds were administered intraperitoneally; in tests (1) and (2), the compounds were in 10% Emulphor EL-620, 10% ethanol, and 80% isotonic saline. In test (3) the compound was in aqueous buffer containing monobasic potassium phosphate and sodium hydroxide (0.05 M), pH 7.40: […]

[2] = cytotoxicity or anti-tumor activity (general statement)
Description: as §1

[3] = clinical use; cited from earlier work
[4] = 50.0 mg/kg/d × 4 ip, 10% Emulphor EL-620, 10% ethanol, 80% isotonic saline
[5] = 60.0 mg/kg/d × 4 ip, 10% Emulphor EL-620, 10% ethanol, 80% isotonic saline
[6] = test (3): 50.0 mg/kg/d × 4 ip, aqueous phosphate buffer (0.05 M) pH 7.40
[7] = test (3): 60.0 mg/kg/d × 4 ip, aqueous phosphate buffer (0.05 M) pH 7.40

COc1cccc2c1C(=O)c1c(O)c3c(c(O)c1C2=O)CC(O)(C(=O)COC(=O)CCCCC(=O)O)CC3OC1CC(NC(=O)C(F)(F)F)C(O)C(C)O1 (stereo not shown) [N-Trifluoroacetyladriamycin-14-O-hemiadipate]
degraded at 24 h ([1]; pH 7.4, pH 7.40, 4° C.): 0%
degraded at 24 h ([1]; pH 7.4, pH 7.40, 27° C.): 0.5%
degraded at 24 h ([1]; pH 8, pH 8.00, 4° C.): 0.3%
degraded at 24 h ([1]; pH 8, pH 8.00, 27° C.): 1%
degraded at 24 h ([1]; pH 9, pH 9.00, 4° C.): 0.5%
resistance to hydrolysis ([1]; aqueous solutions): excellent resistance to hydrolysis
No. alive on d 30 (murine P388 leukemia; each dose 40.0 mg/kg ip): 6/7
No. alive on d 60 (murine P388 leukemia; each dose 40.0 mg/kg ip): 6/7
Survival, day of death (range only, no median) (murine P388 leukemia; each dose 40.0 mg/kg ip): 25 days
No. alive on d 30 (murine P388 leukemia; each dose 50.0 mg/kg ip): 6/7
No. alive on d 60 (murine P388 leukemia; each dose 50.0 mg/kg ip): 5/7
Survival, day of death (range only, no median) (murine P388 leukemia; each dose 50.0 mg/kg ip): 23,45 day
No. alive on d 30 (murine P388 leukemia; each dose 60.0 mg/kg ip): 6/7
No. alive on d 60 (murine P388 leukemia; each dose 60.0 mg/kg ip): 6/7
Survival, day of death (range only, no median) (murine P388 leukemia; each dose 60.0 mg/kg ip): 24,93 day
No. alive on d 30 (murine P388 leukemia; each dose 70.0 mg/kg ip): 7/7
No. alive on d 60 (murine P388 leukemia; each dose 70.0 mg/kg ip): 7/7
Survival, day of death (range only, no median) (murine P388 leukemia; each dose 70.0 mg/kg ip): 61 to 77 days
toxicity to mice relative to adriamycin or daunomycin (mice): significantly less toxic to mice than adriamycin or daunomycin
pIC50 (CCRF-CEM cells): 6.51
% ILS (percent median increase in life span relative to untreated controls, calculated as of day 50) (murine L1210 leukemia; [4]): > 456%
No. alive on d 50 (murine L1210 leukemia; [4]): 7/7
% ILS (percent median increase in life span relative to untreated controls, calculated as of day 50) (murine L1210 leukemia; [5]): > 456%
No. alive on d 50 (murine L1210 leukemia; [5]): 6/7
prolonging the survival of mice bearing the L1210 leukemia (murine L1210 leukemia; ip): highly effective in prolonging the survival of mice bearing the L1210 leukemia
% ILS (percent median increase in life span relative to untreated controls, calculated as of day 50) (murine L1210 leukemia; [6]): > 456%
No. alive on d 50 (murine L1210 leukemia; [6]): 5/7
% ILS (percent median increase in life span relative to untreated controls, calculated as of day 50) (murine L1210 leukemia; [7]): > 456%
No. alive on d 50 (murine L1210 leukemia; [7]): 7/7
solubility (solubility in water; phosphate buffer, pH 7.4, aqueous buffer): 60 mg/mL (≈ 78.2 mM)
solubility in water relative to N-trifluoroacetyladriamycin-14-valerate (solubility in water; physiological pH in the range pH 7.2-7.5): many times greater than that of N-trifluoroacetyladriamycin-14-valerate
cytotoxicity or anti-tumor activity relative to adriamycin ([2]; vs adriamycin): greater than that of adriamycin
cytotoxicity or anti-tumor activity relative to N-trifluoroacetyladriamycin-14-valerate ([2]; vs valerate): approximately equal to that of N-trifluoroacetyladriamycin-14-valerate

COc1cccc2c1C(=O)c1c(O)c3c(c(O)c1C2=O)C[C@@](O)(C(C)=O)C[C@@H]3O[C@H]1C[C@H](N)[C@H](O)[C@H](C)O1 [daunorubicin]
toxic side-effects (dose-limiting) [3]: acute myelosuppression and cumulative dose-related cardiac toxicity

Reference: patent US4299822A, “N-Trifluoroacetyladriamycin-14-O-hemiglutarate and -hemiadipate and therapeutic compositions containing same” (Sidney Farber Cancer Institute, Inc., priority 1980, dated 1981)
